Tested on: 843782-103-R-J1-PDC complex spheroid viability
Assay: Anticancer human tumor 843782-103-R-J1-PDC patient-derived lung adenocarcinoma cell line growth inhibition [RAS]
Conditions: for IC50: curve of first compound; for viability, T/C: stronger effect = lower value
How it was run: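 Multi-cell-type spheroids: tumor cells plus HUVEC endothelial cells and mesenchymal stem cells. RAS-pathway inhibitors were combined with targeted agents, each dosed in half-log steps down from clinical Cmax, or from 10 microM when Cmax was unknown.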

[1] = second compound 0.000949 µM, first compound 0.0316 µM
[2] = second compound 0.000949 µM, first compound 0.1 µM
[3] = second compound 0.000949 µM, first compound 0.316 µM
[4] = second compound 0.000949 µM, first compound 1 µM
[5] = second compound 0.000949 µM, first compound 3.16 µM
[6] = second compound 0.000949 µM, first compound 10 µM
[7] = second compound 0.003 µM, first compound 0.0316 µM
[8] = second compound 0.003 µM, first compound 0.1 µM
[9] = second compound 0.003 µM, first compound 0.316 µM
[10] = second compound 0.003 µM, first compound 1 µM
[11] = second compound 0.003 µM, first compound 3.16 µM
[12] = second compound 0.003 µM, first compound 10 µM
[13] = second compound 0.00949 µM, first compound 0.0316 µM
[14] = second compound 0.00949 µM, first compound 0.1 µM
[15] = second compound 0.00949 µM, first compound 0.316 µM
[16] = second compound 0.00949 µM, first compound 1 µM
[17] = second compound 0.00949 µM, first compound 3.16 µM
[18] = second compound 0.00949 µM, first compound 10 µM
[19] = second compound 0.03 µM, first compound 0.0316 µM
[20] = second compound 0.03 µM, first compound 0.1 µM
[21] = second compound 0.03 µM, first compound 0.316 µM
[22] = second compound 0.03 µM, first compound 1 µM
[23] = second compound 0.03 µM, first compound 3.16 µM
[24] = second compound 0.03 µM, first compound 10 µM
[25] = second compound 0.0949 µM, first compound 0.0316 µM
[26] = second compound 0.0949 µM, first compound 0.1 µM
[27] = second compound 0.0949 µM, first compound 0.316 µM
[28] = second compound 0.0949 µM, first compound 1 µM
[29] = second compound 0.0949 µM, first compound 3.16 µM
[30] = second compound 0.0949 µM, first compound 10 µM
[31] = second compound 0.3 µM, first compound 0.0316 µM
[32] = second compound 0.3 µM, first compound 0.1 µM
[33] = second compound 0.3 µM, first compound 0.316 µM
[34] = second compound 0.3 µM, first compound 1 µM
[35] = second compound 0.3 µM, first compound 3.16 µM
[36] = second compound 0.3 µM, first compound 10 µM
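Note: viability read after seven days of compound exposure.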

## C[C@@H](NC(=O)c1ncnc(N)c1Cl)c1ncc(C(=O)Nc2cc(C(F)(F)F)c(Cl)cn2)s1 + C#Cc1c(F)ccc2cc(O)cc(-c3ncc4c(N5CC6CCC(C5)N6)nc(OCC56CCCN5CC(F)C6)nc4c3F)c12
Second compound 0.0316 µM
  IC50: > 10000 nM
Second compound 0.1 µM
  IC50: > 10000 nM
Second compound 0.316 µM
  IC50: > 10000 nM
Second compound 1 µM
  IC50: > 10000 nM
Second compound 3.16 µM
  IC50: > 10000 nM
Second compound 10 µM
  IC50: > 10000 nM
Second compound 0.0316 µM, first compound 0.0316 µM
  viability, T/C: 114%
Second compound 0.0316 µM, first compound 0.1 µM
  viability, T/C: 97.2%
Second compound 0.0316 µM, first compound 0.316 µM
  viability, T/C: 99.9%
Second compound 0.0316 µM, first compound 1 µM
  viability, T/C: 101%
Second compound 0.0316 µM, first compound 3.16 µM
  viability, T/C: 112%
Second compound 0.0316 µM, first compound 10 µM
  viability, T/C: 101%
Second compound 0.1 µM, first compound 0.0316 µM
  viability, T/C: 112%
Second compound 0.1 µM, first compound 0.1 µM
  viability, T/C: 105%
Second compound 0.1 µM, first compound 0.316 µM
  viability, T/C: 98.6%
Second compound 0.1 µM, first compound 1 µM
  viability, T/C: 101%
Second compound 0.1 µM, first compound 3.16 µM
  viability, T/C: 101%
Second compound 0.1 µM, first compound 10 µM
  viability, T/C: 105%
Second compound 0.316 µM, first compound 0.0316 µM
  viability, T/C: 110%
Second compound 0.316 µM, first compound 0.1 µM
  viability, T/C: 104%
Second compound 0.316 µM, first compound 0.316 µM
  viability, T/C: 103%
Second compound 0.316 µM, first compound 1 µM
  viability, T/C: 102%
Second compound 0.316 µM, first compound 3.16 µM
  viability, T/C: 106%
Second compound 0.316 µM, first compound 10 µM
  viability, T/C: 108%
Second compound 1 µM, first compound 0.0316 µM
  viability, T/C: 101%
Second compound 1 µM, first compound 0.1 µM
  viability, T/C: 100%
Second compound 1 µM, first compound 0.316 µM
  viability, T/C: 105%
Second compound 1 µM, first compound 1 µM
  viability, T/C: 101%
Second compound 1 µM, first compound 3.16 µM
  viability, T/C: 97.2%
Second compound 1 µM, first compound 10 µM
  viability, T/C: 95.9%
Second compound 3.16 µM, first compound 0.0316 µM
  viability, T/C: 86.9%
Second compound 3.16 µM, first compound 0.1 µM
  viability, T/C: 91%
Second compound 3.16 µM, first compound 0.316 µM
  viability, T/C: 90.5%
Second compound 3.16 µM, first compound 1 µM
  viability, T/C: 92.7%
Second compound 3.16 µM, first compound 3.16 µM
  viability, T/C: 80.9%
Second compound 3.16 µM, first compound 10 µM
  viability, T/C: 87.2%
Second compound 10 µM, first compound 0.0316 µM
  viability, T/C: 73.3%
Second compound 10 µM, first compound 0.1 µM
  viability, T/C: 84.3%
Second compound 10 µM, first compound 0.316 µM
  viability, T/C: 64.8%
Second compound 10 µM, first compound 1 µM
  viability, T/C: 48.9%
Second compound 10 µM, first compound 3.16 µM
  viability, T/C: 54.9%
Second compound 10 µM, first compound 10 µM
  viability, T/C: 49.1%

## CC1(O)CCCC1n1c(=O)c(C(F)F)cc2cnc(NC3CCN(S(C)(=O)=O)CC3)nc21 (stereo unspecified) + CCn1c(-c2cc(N3CCN(C)CC3)cnc2C(C)OC)c2c3cc(ccc31)-c1csc(n1)CC(NC(=O)C1CC1C)C(=O)N1CCCC(N1)C(=O)OCC(C)(C)C2
Second compound 0.000949 µM
  IC50: 123 nM
Second compound 0.003 µM
  IC50: 52.7 nM
Second compound 0.00949 µM
  IC50: < 31.6 nM
Second compound 0.03 µM
  IC50: < 31.6 nM
Second compound 0.0949 µM
  IC50: < 31.6 nM
Second compound 0.3 µM
  IC50: < 31.6 nM
[1]
  viability, T/C: 68.6%
[2]
  viability, T/C: 57%
[3]
  viability, T/C: 18.5%
[4]
  viability, T/C: 14.9%
[5]
  viability, T/C: 11.1%
[6]
  viability, T/C: 2.8%
[7]
  viability, T/C: 58.1%
[8]
  viability, T/C: 42.5%
[9]
  viability, T/C: 16.6%
[10]
  viability, T/C: 17.5%
[11]
  viability, T/C: 13.2%
[12]
  viability, T/C: 2.6%
[13]
  viability, T/C: 37.4%
[14]
  viability, T/C: 24.2%
[15]
  viability, T/C: 14.6%
[16]
  viability, T/C: 15.8%
[17]
  viability, T/C: 13.1%
[18]
  viability, T/C: 3.41%
[19]
  viability, T/C: 18.4%
[20]
  viability, T/C: 15.7%
[21]
  viability, T/C: 13%
[22]
  viability, T/C: 12.7%
[23]
  viability, T/C: 13.5%
[24]
  viability, T/C: 2.9%
[25]
  viability, T/C: 15.8%
[26]
  viability, T/C: 13.8%
[27]
  viability, T/C: 10.8%
[28]
  viability, T/C: 11.4%
[29]
  viability, T/C: 12%
[30]
  viability, T/C: 3.5%
[31]
  viability, T/C: 14.1%
[32]
  viability, T/C: 13.6%
[33]
  viability, T/C: 9.45%
[34]
  viability, T/C: 10%
[35]
  viability, T/C: 9.83%
[36]
  viability, T/C: 3.16%

## CC(=O)OC12COC1CC(O)C1(C)C(=O)C(O)C3=C(C)C(OC(=O)C(O)C(NC(=O)OC(C)(C)C)c4ccccc4)CC(O)(C(OC(=O)c4ccccc4)C21)C3(C)C (stereo unspecified) + CCn1c(-c2cc(N3CCN(C)CC3)cnc2C(C)OC)c2c3cc(ccc31)-c1csc(n1)CC(NC(=O)C1CC1C)C(=O)N1CCCC(N1)C(=O)OCC(C)(C)C2
Second compound 0.000949 µM
  IC50: < 31.6 nM
Second compound 0.003 µM
  IC50: < 31.6 nM
Second compound 0.00949 µM
  IC50: < 31.6 nM
Second compound 0.03 µM
  IC50: < 31.6 nM
Second compound 0.0949 µM
  IC50: < 31.6 nM
Second compound 0.3 µM
  IC50: < 31.6 nM
[1]
  viability, T/C: 4.09%
[2]
  viability, T/C: 3.3%
[3]
  viability, T/C: 4.43%
[4]
  viability, T/C: 4.14%
[5]
  viability, T/C: 4.74%
[6]
  viability, T/C: 5.86%
[7]
  viability, T/C: 3.09%
[8]
  viability, T/C: 3.12%
[9]
  viability, T/C: 3.99%
[10]
  viability, T/C: 3.29%
[11]
  viability, T/C: 6.91%
[12]
  viability, T/C: 8.55%
[13]
  viability, T/C: 4.74%
[14]
  viability, T/C: 4.97%
[15]
  viability, T/C: 5.9%
[16]
  viability, T/C: 4.93%
[17]
  viability, T/C: 5.8%
[18]
  viability, T/C: 8.1%
[19]
  viability, T/C: 5.08%
[20]
  viability, T/C: 4.74%
[21]
  viability, T/C: 7.03%
[22]
  viability, T/C: 5.84%
[23]
  viability, T/C: 6.77%
[24]
  viability, T/C: 7.36%
[25]
  viability, T/C: 6.75%
[26]
  viability, T/C: 7.55%
[27]
  viability, T/C: 6%
[28]
  viability, T/C: 8.09%
[29]
  viability, T/C: 7.2%
[30]
  viability, T/C: 7.32%
[31]
  viability, T/C: 6.51%
[32]
  viability, T/C: 6.53%
[33]
  viability, T/C: 8.66%
[34]
  viability, T/C: 8.26%
[35]
  viability, T/C: 9.04%
[36]
  viability, T/C: 7.8%

— PubChem BioAssay AID2060883 (Molecular Pharmacology Branch, DTP, NCI, 2025)
